From patent publication US20080182895A1 (priority 2006, published 2008)
Several values for one entry are separate records, joined by “and”; a condition that tells them apart may be missing. Equal values may be shown once.

Experiments:
[1] = test system: 1b, BB7 replicon variants with single NS5B mutations; experiment: Replicon variant assay, several variants taken together; assay type: cell-based, Hepatitis C virus
Protocol: pBB7-replicon variant DNAs were linearized with Sca I, and in vitro transcription was performed using Ambion's […]® T7 High Yield Transcription kit (Austin, Tex.). Purified RNA transcripts were electroporated into Huh-7 cells in quadruplicates using a Biorad GENE PULSER® Electroporation System (Setting: 270V, 950 μF) (Hercules, Calif.). Stably transfected replicon variant cell lines were initially selected with 0.25 mg/ml G418 and stepped up to 1 mg/ml before further testing. One cell plate was stained with Crystal Violet to visualize the number of colonies and determine the colony formation efficiency. Individual cell clones from each plate were pooled and expanded for drug susceptibility testing.
The contribution of individual amino acid changes on drug resistance was assessed in replicon variants containing single amino acid mutations in NS5B in the background of the genotype 1b, BB7 adaptive replicon (Blight et al. (2000) Science 290:1972-74).
(§1) Drug susceptibility of the replicon-containing cells to various compounds was evaluated as described previously (Howe et al. (2004) Antimicrobial Agents Chem. 48:4813-21). Briefly, cells were treated with increasing concentrations of compounds in medium containing 2% FCS and no G418 for three days at 37° C. and 5% CO2. After incubation, total RNA from the replicon-containing cells was isolated. The levels of HCV, glyceraldehyde 3-phosphate dehydrogenase (GAPDH) and ribosomal (rRNA) RNAs were quantified using TAQMAN® (PE Applied Biosystems, Foster City, Calif.) reverse transcriptase PCR reactions. The amounts of HCV, 18S ribosomal, and GAPDH RNAs in each sample were estimated by comparing the number of cycles during the exponential phase of the PCR amplification with those in the corresponding standard curves. HCV RNA standards used for the construction of the standard curve were prepared by extracting the total RNA from the Clone A cells. The RNA sample was sent to National Genetics Institute to quantify HCV RNA. Total RNA extracted from Clone A cells was quantified by O.D.260 measurement and used for construction of the standard curves of rRNA and GAPDH. The concentrations of the compounds that inhibit 50% of the HCV RNA level (EC50) were determined using the MDL® LIFE SCIENCE WORKBENCH® (LSW) Data Analysis software (MDL Information Systems, San Leandro, Calif.) in Microsoft EXCEL®. The amounts of HCV or GAPDH RNAs in the samples were expressed as HCV RNA (copies) or GAPDH (ng), respectively, per μg of total RNA using rRNA as a marker for total RNA measurement.

[2] = test system: HCV NS5B enzyme BB7-M414V; experiment: NS5B polymerase biochemical assay; design: species or system Hepatitis C virus genotype 1b; conditions: BB7-M414V vs BB7 (C316)
Protocol: (§2) All NS5B enzymes were expressed and purified according to the protocol for NS5B-BB7dCT21-His as described (Howe et al. (2004) Antimicrobial Agents Chem. 48:4813-21). Briefly, expression plasmids were transformed into E. coli cells and NS5B expression was initiated by the addition of isopropyl-beta-D-thiogalactopyranoside (IPTG). After 4 to 6 hours of incubation the cells were harvested and lysed. NS5B enzymes were purified by chromatography using a nickel affinity column (Talon, B D Biosciences, Clontech Laboratories, Inc., Mountain View, Calif.)) followed by a cation exchange column (Poros H S, Applied Biosystems, Foster City, Calif.).

[3] = target: T1, HCV NS5B enzyme BB7-C316Y (Hepatitis C virus genotype 1b, UniProt Q9WMX2, C2735Y); experiment: NS5B polymerase biochemical assay
T1 construct: To prepare expression plasmid NS5B-BB7dCT21-His(C316Y); His (C); made in house; host or cells: E. coli
Protocol: as §2

[4] = target: T2, HCV NS5B enzyme BB7-C316F (Hepatitis C virus genotype 1b, UniProt Q9WMX2, C2735F); experiment: NS5B polymerase biochemical assay
T2 construct: NS5B-BB7dCT21-His(C316F/S/Y/N); His (C); made in house; host or cells: E. coli
Protocol: as §2

[5] = test system: HCV NS5B enzyme BB7-C316Y; experiment: NS5B polymerase biochemical assay; design: species or system Hepatitis C virus genotype 1b; conditions: BB7-C316Y vs BB7 (C316)
Protocol: as §2

[6] = target: T3, HCV NS5B enzyme BK (N316) (Hepatitis C virus genotype 1b, UniProt P26663); experiment: NS5B polymerase biochemical assay
T3 construct: the NS5B enzyme derived from the genotype 1b BK isolate; His (C); made in house; host or cells: E. coli
Protocol: as §2

[7] = test system: HCV NS5B enzyme BB7-M414I; experiment: NS5B polymerase biochemical assay; design: species or system Hepatitis C virus genotype 1b; conditions: BB7-M414I vs BB7 (C316)
Protocol: as §2

[8] = target: T4, HCV NS5B enzyme BB7-C316N (Hepatitis C virus genotype 1b, UniProt Q9WMX2, C2735N); experiment: NS5B polymerase biochemical assay
T4 construct: To prepare expression plasmid NS5B-BB7dCT21-His(C316N); His (C); made in house; host or cells: E. coli
Protocol: as §2

[9] = test system: HCV NS5B enzyme BB7-C316N; experiment: NS5B polymerase biochemical assay; design: species or system Hepatitis C virus genotype 1b; conditions: BB7-C316N vs BB7 (C316)
Protocol: as §2

[10] = target: T5, HCV NS5B enzyme BK-N316C (Hepatitis C virus genotype 1b, UniProt P26663, N2735C); experiment: NS5B polymerase biochemical assay
T5 construct: the NS5B enzyme derived from the genotype 1b BK isolate; His (C); made in house; host or cells: E. coli
Protocol: as §2

[11] = target: T6, HCV NS5B enzyme BB7-I363V (Hepatitis C virus genotype 1b, UniProt Q9WMX2, I2782V); experiment: NS5B polymerase biochemical assay
T6 construct: To prepare expression plasmid NS5B-BB7dCT21-His(1363V); His (C); made in house; host or cells: E. coli
Protocol: as §2

[12] = test system: 796R(1 μM) cells; experiment: HCV replicon 3-day assay in variant cells; assay type: cell-based, Hepatitis C virus
Protocol: All resistant cells were cultured at the indicated drug concentrations in the presence of 0.5 mg/ml G418 for at least 3 weeks before analysis.
The levels of HCV RNA were determined using a quantitative TAQMAN® RT-PCR (PE Applied Biosystems, Foster City, Calif.).
as §1

T5 sequence (P26663 2420-2989 N2735C): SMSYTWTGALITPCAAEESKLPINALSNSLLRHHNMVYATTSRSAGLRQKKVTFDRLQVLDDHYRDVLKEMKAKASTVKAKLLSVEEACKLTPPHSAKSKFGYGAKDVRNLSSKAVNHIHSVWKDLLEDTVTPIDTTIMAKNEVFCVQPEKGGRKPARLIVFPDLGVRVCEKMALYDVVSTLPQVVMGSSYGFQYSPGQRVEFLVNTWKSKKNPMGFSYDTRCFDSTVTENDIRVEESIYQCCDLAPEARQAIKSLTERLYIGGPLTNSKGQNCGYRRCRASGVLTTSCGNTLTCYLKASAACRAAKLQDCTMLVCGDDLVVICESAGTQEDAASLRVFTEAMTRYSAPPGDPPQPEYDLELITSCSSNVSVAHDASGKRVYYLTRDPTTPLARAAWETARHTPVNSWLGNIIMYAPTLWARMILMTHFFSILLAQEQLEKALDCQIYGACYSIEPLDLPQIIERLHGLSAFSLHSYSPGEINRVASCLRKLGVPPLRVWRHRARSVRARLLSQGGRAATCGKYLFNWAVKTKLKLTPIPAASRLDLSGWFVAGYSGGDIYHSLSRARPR
T6 sequence (Q9WMX2 2420-2989 I2782V): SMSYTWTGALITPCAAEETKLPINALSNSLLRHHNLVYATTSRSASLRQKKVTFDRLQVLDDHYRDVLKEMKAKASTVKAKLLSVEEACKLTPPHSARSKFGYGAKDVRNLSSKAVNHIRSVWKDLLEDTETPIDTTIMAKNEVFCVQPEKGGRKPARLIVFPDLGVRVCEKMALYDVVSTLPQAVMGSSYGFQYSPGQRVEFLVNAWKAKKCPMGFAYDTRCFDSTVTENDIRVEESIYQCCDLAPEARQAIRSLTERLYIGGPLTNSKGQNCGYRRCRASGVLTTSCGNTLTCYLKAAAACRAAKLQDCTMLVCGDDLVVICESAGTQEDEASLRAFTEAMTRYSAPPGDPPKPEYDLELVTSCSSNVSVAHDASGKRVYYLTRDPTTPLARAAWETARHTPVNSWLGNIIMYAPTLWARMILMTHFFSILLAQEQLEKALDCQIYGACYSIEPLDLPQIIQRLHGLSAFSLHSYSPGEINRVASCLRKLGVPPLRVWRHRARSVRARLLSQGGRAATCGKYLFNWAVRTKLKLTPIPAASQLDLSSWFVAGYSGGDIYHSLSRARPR
T1 sequence (Q9WMX2 2420-2989 C2735Y): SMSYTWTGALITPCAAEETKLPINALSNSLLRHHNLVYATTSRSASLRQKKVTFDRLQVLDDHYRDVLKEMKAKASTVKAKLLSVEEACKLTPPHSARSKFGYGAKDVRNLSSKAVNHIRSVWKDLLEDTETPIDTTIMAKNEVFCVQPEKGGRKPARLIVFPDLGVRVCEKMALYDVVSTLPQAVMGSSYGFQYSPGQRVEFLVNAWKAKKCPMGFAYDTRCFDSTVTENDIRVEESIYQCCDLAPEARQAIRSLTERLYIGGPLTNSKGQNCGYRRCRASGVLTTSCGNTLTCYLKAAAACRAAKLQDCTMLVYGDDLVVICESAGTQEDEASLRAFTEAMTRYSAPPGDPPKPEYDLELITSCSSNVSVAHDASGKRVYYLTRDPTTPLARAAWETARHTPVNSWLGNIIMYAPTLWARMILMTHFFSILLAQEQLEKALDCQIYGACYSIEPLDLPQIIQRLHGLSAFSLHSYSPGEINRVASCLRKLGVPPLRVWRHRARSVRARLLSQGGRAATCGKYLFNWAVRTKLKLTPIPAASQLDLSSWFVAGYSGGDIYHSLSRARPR
T4 sequence (Q9WMX2 2420-2989 C2735N): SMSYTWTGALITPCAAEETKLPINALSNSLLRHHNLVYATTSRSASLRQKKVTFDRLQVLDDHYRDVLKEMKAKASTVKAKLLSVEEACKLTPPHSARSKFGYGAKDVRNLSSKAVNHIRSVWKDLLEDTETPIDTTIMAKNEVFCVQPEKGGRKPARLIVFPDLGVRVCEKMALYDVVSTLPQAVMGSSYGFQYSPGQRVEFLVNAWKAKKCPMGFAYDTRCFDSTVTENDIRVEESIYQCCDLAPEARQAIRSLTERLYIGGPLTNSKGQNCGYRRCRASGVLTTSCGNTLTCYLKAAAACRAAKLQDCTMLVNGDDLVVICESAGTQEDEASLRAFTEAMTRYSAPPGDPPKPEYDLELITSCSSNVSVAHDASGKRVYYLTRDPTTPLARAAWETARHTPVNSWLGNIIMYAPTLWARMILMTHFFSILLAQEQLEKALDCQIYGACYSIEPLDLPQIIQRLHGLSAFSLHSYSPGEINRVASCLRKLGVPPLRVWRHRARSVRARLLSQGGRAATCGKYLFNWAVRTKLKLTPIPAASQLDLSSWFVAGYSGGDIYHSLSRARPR
T3 sequence (P26663 2420-2989): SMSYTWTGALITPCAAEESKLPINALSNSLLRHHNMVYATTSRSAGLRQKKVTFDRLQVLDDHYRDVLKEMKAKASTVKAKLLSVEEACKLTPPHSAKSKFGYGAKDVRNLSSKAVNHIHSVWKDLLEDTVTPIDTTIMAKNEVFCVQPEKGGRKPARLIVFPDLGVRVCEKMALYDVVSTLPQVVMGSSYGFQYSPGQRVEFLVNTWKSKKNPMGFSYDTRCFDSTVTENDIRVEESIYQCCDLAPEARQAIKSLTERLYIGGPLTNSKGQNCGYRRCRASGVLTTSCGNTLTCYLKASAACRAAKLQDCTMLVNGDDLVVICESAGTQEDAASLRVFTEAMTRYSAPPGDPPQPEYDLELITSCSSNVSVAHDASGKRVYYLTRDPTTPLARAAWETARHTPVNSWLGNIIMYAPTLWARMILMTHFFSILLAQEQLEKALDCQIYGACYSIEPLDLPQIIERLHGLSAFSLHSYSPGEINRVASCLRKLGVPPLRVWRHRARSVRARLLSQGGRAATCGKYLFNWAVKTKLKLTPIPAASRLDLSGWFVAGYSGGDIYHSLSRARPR
T2 sequence (Q9WMX2 2420-2989 C2735F): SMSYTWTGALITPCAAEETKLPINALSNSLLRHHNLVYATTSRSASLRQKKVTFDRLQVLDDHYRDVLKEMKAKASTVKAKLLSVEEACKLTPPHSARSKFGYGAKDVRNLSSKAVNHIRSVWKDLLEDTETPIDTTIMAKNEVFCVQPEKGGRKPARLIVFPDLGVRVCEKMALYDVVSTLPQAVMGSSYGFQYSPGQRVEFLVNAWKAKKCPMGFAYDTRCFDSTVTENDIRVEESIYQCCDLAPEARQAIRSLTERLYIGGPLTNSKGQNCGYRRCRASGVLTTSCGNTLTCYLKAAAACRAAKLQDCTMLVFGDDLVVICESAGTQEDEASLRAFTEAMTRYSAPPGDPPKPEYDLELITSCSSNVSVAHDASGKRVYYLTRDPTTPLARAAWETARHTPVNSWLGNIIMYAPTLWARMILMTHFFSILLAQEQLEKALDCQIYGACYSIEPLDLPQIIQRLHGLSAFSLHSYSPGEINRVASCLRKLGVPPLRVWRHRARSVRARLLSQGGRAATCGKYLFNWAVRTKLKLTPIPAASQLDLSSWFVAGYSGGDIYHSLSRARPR

## CNC(=O)c1c(-c2ccc(F)cc2)oc2cc(N(CCO)S(C)(=O)=O)c(C3CC3)cc12 [HCV-796, 5-cyclopropyl-2-(4-fluorophenyl)-6-[(2-hydroxyethyl)(methylsulfonyl)amino]-N-methyl-1-benzofuran-3-carboxamide]
[1]; I363V and S368F replicon variants
  effect on the susceptibility to HCV-796 (in words): modest effect
[1]; M414I/V replicon variants, range
  Fold Reduced Susceptibility: 3-8 fold
[2]
  Susceptibility Relative to Wild type Enzyme: 1.4-fold more
[3]
  IC50: 320 ± 10 nM
[4]
  IC50: 1510 ± 419 nM
[5]
  Susceptibility Relative to Wild type Enzyme: 8-fold less
[6]
  IC50: 140 ± 50 nM
[7]
  Susceptibility Relative to Wild type Enzyme: 1.7-fold more
[8]
  IC50: 81 ± 42 nM
[9]
  Susceptibility Relative to Wild type Enzyme: 2-fold less
[10]
  IC50: 31 ± 4 nM
[10]; BK-N316C vs wild type BK (N316)
  Susceptibility Relative to Wild type Enzyme: 4.5 fold more and 4.5-fold more
[11]; BB7-I363V enzyme
  IC50: 60 ± 10 nM
[11]; BB7-I363V vs BB7 (C316)
  Susceptibility Relative to Wild type Enzyme: 1.5-fold less
[12]; 796R(1 μM) cells vs Clone A control
  Fold Reduced Susceptibility: 618 fold
[12]; 796R(1 μM) cells, 56 μM compound, 3-day assay
  Mean log10 Viral Reduction: 0.7 log10 and 0.7 ± 0.2 (56 μM) log10
[12]; Hepatitis C virus, 796R(1 μM) cells, HCV RNA, 72 hours
  EC50: 8 ± 5.2 µM
